The values below are quoted from earlier work in publication PMC5763161 (Molecular Therapy, 2017).

This data set concerns dystrophin exon skipping. The note with it: mdx mice.

In the case of ASSLNIA, the “delivery or exon-skipping levels when conjugated to a PMO” value is reported as “unable to increase”.
